# Results published in US7723023B2, “Use of intrinsic reporters of cell signaling for high content drug profiling and toxicity screening” (Mount Sinai School of Medicine, priority 2001, dated 2010).
# What was measured:
# [1] = test system: serotonin 5-HT2A receptor; experiment: Early gene expression in mouse somatosensory cortex after drug injection, real-time PCR; format: in vivo; settings: 1 h after i.p. exposure
# [2] = test system: human serotonin 5-HT2A receptor; experiment: Gene response landscape of IRCs in HEK293 cells expressing 5-HT2A receptor; format: cell-based; settings: 10 genes, 8 concentrations, 1 hour, HEK293 cells expressing 5-HT2A receptors
# Description: FIG. 6 is the gene response landscape for 5-HT and DOI in HEK293 cells expressing 5-HT2A receptors. The levels of gene induction in response to 8 concentrations of each agonist for 10 genes were determined in quadruplicate samples. The height of each peak represents the level of gene induction, expressed as fold-change. […] For example, the rightmost peak is highest with DOI exposure, but is lower with 5-HT exposure.
# HEK293 cells were genetically engineered to stably express the human serotonin 5-HT2A receptor. Replicate aliquots of cells were treated with varying concentrations of 5-HT and DOI and the levels of a panel of IRCS after 1 hour exposure were determined by SYBR® green real-time PCR.
# PC12 cells [3] = experiment: IRC (c-fos, egr1) response to cytotoxin in PC12 cells by real-time PCR; format: cell-based, rat; settings: 200 μM H2O2, 1 hour exposure
# Description: The values shown are mean±s.e.m.
# The samples assayed were the same as those used to generate FIG. 7.
# (§1) This level of oxidative stress induced by H2O2 leads to cell death via apoptosis, as determined by increased Caspase 3 activity by 8 hours and a reduced MTT assay response at 24 hours. […] This would allow the prediction of the toxicity of a candidate drug in this cellular target by comparison of the pattern obtained with this drug to those observed with known toxins. Thus the toxins would generate a library of reference landscapes that would serve as predictors of the effects of candidate drugs. The comparison between candidate compounds and reference landscapes could be achieved by representing each IRC at one concentration as a different axis in a conceptual multidimensional space (or matrix) and determining the Euclidean distance between the location of the candidate response profile and that of the reference landscape. Candidates that are closer to the position of known toxins would be predicted to have a higher likelihood of inducing similar toxicity at the corresponding concentrations.
# PC12 cells [4] = experiment: Cell death of PC12 cells under oxidative stress (Caspase 3 activity, MTT assay); format: cell-based, rat
# Description: as §1
# [5] = test system: PC12 cells that stably express the dopamine D2 receptor; settings: 200 μM H2O2, 1 h, PC12-D2R cells
# Description: Early genes β-actin, PC3, c-fos, and egr1 were assayed by real-time PCR.
Structure (SMILES),Induction of the 8 early genes in serotonin 5HT2A receptor gene-knockout mouse [1],Level of gene induction (fold-change) compared with 5-HT [2],cfos mRNA level (PC12 cells [3]),egr1 mRNA level (PC12 cells [3]),"MTT assay response (PC12 cells [4]; 200 μM H2O2, at 24 hours)","Caspase 3 activity (PC12 cells [4]; 200 μM H2O2, by 8 hours)","Early genes induced (β-actin, PC3, c-fos, egr1 assayed) [5]"
COc1cc(CC(C)N)c(OC)cc1I (centres unmarked) [DOI],no induction was observed,generally lower responses,,,,,
OO [H2O2],,,marked increase,marked increase,reduced,increased,"Three genes were found to be induced at 1 h: PC3, c-fos, and egr1"
CCN(CC)C(=O)[C@@H]1C=C2c3cccc4[nH]cc(c34)C[C@H]2N(C)C1 [LSD],no induction was observed,,,,,,
